Laboratory results: paper PMC9701179, “New tricyclic systems as photosensitizers towards triple negative breast cancer cells” (Archives of Pharmacal Research, 2022)

Assays:
MDA-MB-231 cells = assay: Mitochondrial membrane potential (Mito-ID kit); format: cell-based, human; conditions: MDA-MB-231, UVA 2.0 J/cm^2; CCCP positive control
Protocol: The ΔΨ was assayed using the Mito-ID® Membrane Potential Kit according to the manufacturer’s instructions (Enzo Life Sciences, Farmingdale, NY, USA) as previously described. Briefly, MDA-MB-231 cells (8 × 10^3 per well) were seeded in 96-well plates; after 24 h, cells were washed with PBS and loaded with Mito-ID Detection Reagent for 30 min at 37 °C in the dark. Afterwards, cells were incubated with increasing concentrations of tested compounds for 90 min and after that exposed to UVA light (2.0 J/cm^2). CCCP (Carbonyl cyanide 3-chlorophenyl-hydrazone) was used as positive control. Fluorescence intensity was estimated using a VICTOR X3 (PerkinElmer, USA) plate reader at 490 (excitation) and 590 nm (emission).
Induction of ROS production can in turn prompt the collapse of mitochondrial membrane potential as well as loss of mitochondrial integrity and functioning. […] MDA-MB-231 TNBC cells were treated with tested compounds upon UVA irradiation and the percentage of cells with hypopolarized mitochondrial membrane potential was determined fluorometrically by means of the Mito-ID® Membrane Potential Kit.
Fig. 5 Effects on mitochondrial membrane potential (A) and cell death induction (B) in human breast MDA-MB-231 cancer cells. A Cells were treated with 7h and 8e and stained with TMRM (10 nM). Fluorescence was estimated at 490 nm (excitation) and 590 nm (emission). Data are the means of five independent experiments. Error bars indicate S.D. * P < 0.05. B Cells were treated with concentrations of 7h and 8e equal to IC50 for 24 h and stained with the fluorescent dyes Hoechst 33342 and PI

[1] = UVA photostability (UV-Vis spectra in PBS); format: physicochemical; conditions: for Stability under UVA irradiation (UV-Vis spectra): 2.2 × 10^−5 M, increasing UVA doses 0–20 J/cm^2; for Photodegradation at the light dose of the cytotoxic experiments: UVA 2 J/cm^2, decrease of absorbance of main UV-Vis peaks (data not shown)
Protocol: Samples containing each compound (2.2 × 10^− 5 M) dissolved in PBS (0.04 M) were irradiated with increasing UVA doses from 0 to 20 J/cm^2 ([…], 5, 10, 15 and 20 J/cm^2), and their absorption spectrum was measured, with a Cary 50 Scan UV–Visible Spectrophotometer.
The most significant 7h and 8e pyridone derivatives were tested for their stability under UVA irradiation. […] Moreover, isosbestic points were visible, indicating the formation of one or more new stable species in equilibrium with the intact dark compound.
Fig. 6 UV–Vis Absorption spectra of 7h (left) and 8e (right) in PBS irradiated under 0, 2, 5, 10, 15 and 20 J/cm^2 with UVA light. 0 J/cm^2, red spectrum; 20 J/cm^2, light green spectrum

## CCOC(=O)c1ccc2n1CCc1cc(S(=O)(=O)c3ccccc3)c(OC)nc1-2 [Compound 7h, Ethyl 3-(benzenesulfonyl)-2-methoxy-5,6-dihydropyrrolo[1,2-h][1,7]naphthyridine-8-carboxylate]
MDA-MB-231 cells
  Cells with depolarized mitochondria (mitochondrial membrane potential): significant increase of cells with depolarized mitochondria
[1]
  Stability under UVA irradiation (UV-Vis spectra): very unstable under light
  Photodegradation at the light dose of the cytotoxic experiments: photodegradation was very weak

## CCOC(=O)c1ccc2n1CCCc1cc(S(=O)(=O)c3ccccc3)c(OC)nc1-2 [Compound 8e, Ethyl 3-(benzenesulfonyl)-2-methoxy-6,7-dihydro-5H-pyrido[2,3-c]pyrrolo[1,2-a]azepine-9-carboxylate]
MDA-MB-231 cells
  Cells with depolarized mitochondria (mitochondrial membrane potential): significant increase of cells with depolarized mitochondria
[1]
  Stability under UVA irradiation (UV-Vis spectra): very unstable under light
  Photodegradation at the light dose of the cytotoxic experiments: photodegradation was very weak
